# Source: patent publication US20230053688A1, “METHODS TO ALTER LATENCY IN EBV+ MALIGNANCIES” (Cornell University, priority 2020, published 2023)
# Counter-ions that a name gives are not always drawn. Like-named read-outs stand apart in the source and are kept apart here.
# System: LMP1 expression in Kem I cells
# Experiment: microbe, parasite or virus in culture
# Type: cell-based, EBV
# Conditions: for fold induction at 2.5 µM / fold induction at 1 µM: human gammaherpesvirus 4, 48 h; for Average LMP1 Fold Increase / Replicate 1-LMP1 Fold Increase / Replicate 2-LMP1 Fold Increase: Kem I cells, 48 hours
# [1] = read-out: Average LMP1 Fold Increase, Kem I cells, dose 2.5 uM, 48 hours, LMP1 transcript by in-well qRT-PCR, average of the two replicates
# [2] = read-out: Replicate 1-LMP1 Fold Increase, Kem I cells, dose 2.5 uM, 48 hours, LMP1 transcript by in-well qRT-PCR, screen replicate 1
# [3] = read-out: Replicate 2-LMP1 Fold Increase, Kem I cells, dose 2.5 uM, 48 hours, LMP1 transcript by in-well qRT-PCR, screen replicate 2
# [4] = read-out: Average LMP1 Fold Increase, Kem I cells, 2.5 uM, 48 hours, average of replicates 1 and 2
# [5] = read-out: Replicate 1-LMP1 Fold Increase, Kem I cells, 2.5 uM, 48 hours, fold change in LMP1 transcript vs vehicle
# [6] = read-out: Replicate 2-LMP1 Fold Increase, Kem I cells, 2.5 uM, 48 hours, fold change in LMP1 transcript vs vehicle
# [7] = dose 2.5 uM, LMP1 transcript by in-well qRT-PCR, average of the two replicates
# [8] = dose 2.5 uM, LMP1 transcript by in-well qRT-PCR, screen replicate 1
# [9] = dose 2.5 uM, LMP1 transcript by in-well qRT-PCR, screen replicate 2
# [10] = 2.5 uM, average of replicates 1 and 2
# [11] = 2.5 uM, fold change in LMP1 transcript vs vehicle
compound,measurement,setting,value
CCOC(=O)N1c2ccc(C(F)(F)F)cc2[C@@H](N(Cc2cc(C(F)(F)F)cc(C(F)(F)F)c2)C(=O)OC)C[C@H]1CC [Torcetrapib],fold induction at 2.5 µM,[1],0.5
same,fold induction at 2.5 µM,[2],0.4
same,fold induction at 2.5 µM,[3],0.6
CC(C)n1c(/C=C/C(O)CC(O)CC(=O)O)c(-c2ccc(F)cc2)c2ccccc21 (stereo not drawn) [Fluvastatin Sodium],fold induction at 2.5 µM,[4],0.94
same,fold induction at 2.5 µM,[5],0.84
same,fold induction at 2.5 µM,[6],1.04
COc1nc(C)cnc1NS(=O)(=O)c1cccnc1-c1ccc(-c2nnco2)cc1 [Zibotentan (ZD4054)],Average LMP1 Fold Increase,[7],0.77 fold
same,Replicate 1-LMP1 Fold Increase,[8],0.57 fold
same,Replicate 2-LMP1 Fold Increase,[9],0.97 fold
VU 0357121,Average LMP1 Fold Increase,[7],0.48 fold
same,Replicate 1-LMP1 Fold Increase,[8],0.51 fold
same,Replicate 2-LMP1 Fold Increase,[9],0.46 fold
Nc1nc(N)c2nc(-c3ccccc3)c(N)nc2n1 [Triamterene],fold induction at 2.5 µM,[1],0.91
same,fold induction at 2.5 µM,[2],0.56
same,fold induction at 2.5 µM,[3],1.26
CN[C@H]1CC[C@@H](c2ccc(Cl)c(Cl)c2)c2ccccc21 [Sertraline HCl],fold induction at 2.5 µM,[4],1.07
same,fold induction at 2.5 µM,[5],0.81
same,fold induction at 2.5 µM,[6],1.33
Cn1c(=O)cc(N2CCC[C@@H](N)C2)n(Cc2cc(F)ccc2C#N)c1=O [Trelagliptin],fold induction at 2.5 µM,[1],0.63
same,fold induction at 2.5 µM,[2],0.96
same,fold induction at 2.5 µM,[3],0.31
C[C@H](N[C@@H](CCc1ccccc1)C(=O)O)C(=O)N1CCC[C@H]1C(=O)O.O.O [Enalaprilat Dihydrate],Average LMP1 Fold Increase,[10],0.51
same,Replicate 1-LMP1 Fold Increase,[11],0.51
same,Replicate 2-LMP1 Fold Increase,[11],0.52
O=C(Nc1cccc(C(F)(F)F)c1)Nc1cc(S(=O)(=O)NC2CC2)ccc1-c1ccsc1 [AGI-6780],fold induction at 2.5 µM,[4],1.51
same,fold induction at 2.5 µM,[5],0.42
same,fold induction at 2.5 µM,[6],2.6
CCn1c(=O)c2c(nc(/C=C/c3ccc(OC)c(OC)c3)n2C)n(CC)c1=O [Istradefylline],fold induction at 2.5 µM,[4],0.7
same,fold induction at 2.5 µM,[5],0.35
same,fold induction at 2.5 µM,[6],1.06
O=C(O)/C=C/c1ccc(Cn2ccnc2)cc1 [Ozagrel],Replicate 2-LMP1 Fold Increase,[11],1.55
same,fold induction at 2.5 µM,[4],1.41
same,fold induction at 2.5 µM,[5],1.27
Cc1c(Cl)cccc1Nc1ccccc1C(=O)O [Tolfenamic Acid],fold induction at 2.5 µM,[1],0.15
same,fold induction at 2.5 µM,[2],0.11
same,fold induction at 2.5 µM,[3],0.2
Nc1nc(N)c2nc(-c3cccc(O)c3)c(-c3cccc(O)c3)nc2n1 [TG100-115],Average LMP1 Fold Increase,[7],0.53 fold
same,Replicate 1-LMP1 Fold Increase,[8],0.33 fold
same,Replicate 2-LMP1 Fold Increase,[9],0.73 fold
O=C(NC(Cc1cc(=O)[nH]c2ccccc12)C(=O)O)c1ccc(Cl)cc1 (stereo not drawn) [Rebamipide],fold induction at 2.5 µM,[4],0.85
same,fold induction at 2.5 µM,[5],0.48
same,fold induction at 2.5 µM,[6],1.23
CC(C)N(CC[C@H](c1ccccc1)c1cc(CO)ccc1O)C(C)C,Average LMP1 Fold Increase,[10],0.36
same,Replicate 1-LMP1 Fold Increase,[11],0.49
same,Replicate 2-LMP1 Fold Increase,[11],0.23
C#CCC(Cc1cnc2nc(N)nc(N)c2n1)c1ccc(C(=O)N[C@@H](CCC(=O)O)C(=O)O)cc1 (stereo partly drawn) [Pralatrexate],fold induction at 2.5 µM,[4],3.49
same,fold induction at 2.5 µM,[5],3.95
same,fold induction at 2.5 µM,[6],3.02
O=C(/C=C/c1ccccc1)NC(NC(=S)Nc1ccc(Cl)cc1)C(Cl)(Cl)Cl (stereo not drawn) [Sal003],Average LMP1 Fold Increase,[10],0.64
same,Replicate 1-LMP1 Fold Increase,[11],0.76
same,Replicate 2-LMP1 Fold Increase,[11],0.53
VU 0364439,Average LMP1 Fold Increase,[7],0.90 fold
same,Replicate 1-LMP1 Fold Increase,[8],1.34 fold
same,Replicate 2-LMP1 Fold Increase,[9],0.45 fold
O=C(Nc1ccccc1)c1cc([N+](=O)[O-])ccc1Cl [GW9662],Average LMP1 Fold Increase,[10],0.58
same,Replicate 1-LMP1 Fold Increase,[11],0.26
same,Replicate 2-LMP1 Fold Increase,[11],0.89
Nc1cccc2c1C(=O)N(C1CCC(=O)NC1=O)C2=O (stereo not drawn) [Pomalidomide],fold induction at 2.5 µM,[4],5.8
same,fold induction at 2.5 µM,[5],3.72
same,fold induction at 2.5 µM,[6],7.87
O=C1NC(=O)C(c2ccccc2[N+](=O)[O-])=C1Nc1ccc(O)c(Cl)c1 [SB415286],Average LMP1 Fold Increase,[10],0.71
same,Replicate 1-LMP1 Fold Increase,[11],0.59
same,Replicate 2-LMP1 Fold Increase,[11],0.84
O=C(/C=C/c1ccc(O)c(O)c1)OCCc1ccccc1 [Caffeic Acid Phenethyl Ester],fold induction at 2.5 µM,[4],0.46
same,fold induction at 2.5 µM,[5],0.59
same,fold induction at 2.5 µM,[6],0.33
O=C1C(=O)N(Cc2ccc(Cl)c(Cl)c2)c2ccccc21 [Apoptosis Activator 2],Average LMP1 Fold Increase,[10],0.82
same,Replicate 1-LMP1 Fold Increase,[11],0.87
same,Replicate 2-LMP1 Fold Increase,[11],0.78
NC1(Cc2ccc(Cl)cc2)CCN(c2ncnc3[nH]ccc23)CC1 [CCT128930],Average LMP1 Fold Increase,[10],0.59
same,Replicate 1-LMP1 Fold Increase,[11],0.40
same,Replicate 2-LMP1 Fold Increase,[11],0.78
COc1cc(OC)c(NC(=O)Nc2cc(C)on2)cc1Cl [PNU-120596],Average LMP1 Fold Increase,[10],0.30
same,Replicate 1-LMP1 Fold Increase,[11],0.17
same,Replicate 2-LMP1 Fold Increase,[11],0.44
COc1cccc2c1C(=O)c1c(O)c3c(c(O)c1C2=O)C[C@@](O)(C(C)=O)C[C@@H]3O[C@H]1C[C@H](N)[C@H](O)[C@H](C)O1 [Daunorubicin HCl],fold induction at 2.5 µM,[4],242
same,fold induction at 2.5 µM,[5],221
same,fold induction at 2.5 µM,[6],262
CC(C)NCCCn1c(Sc2cc3c(cc2I)OCO3)nc2c(N)ncnc21 [PU-H71],fold induction at 1 µM,"read-out: Average LMP1 Fold Increase, Kem I cells, 1 uM, 48 hours, average of replicates 1 and 2",9.03
same,fold induction at 1 µM,"read-out: Replicate 1-LMP1 Fold Increase, Kem I cells, 1 uM, 48 hours, fold change in LMP1 transcript vs vehicle",15.3
same,fold induction at 1 µM,"read-out: Replicate 2-LMP1 Fold Increase, Kem I cells, 1 uM, 48 hours, fold change in LMP1 transcript vs vehicle",2.79
CO[C@H]1C[C@@H]2CC[C@@H](C)[C@@](O)(O2)C(=O)C(=O)N2CCCC[C@H]2C(=O)O[C@H]([C@H](C)C[C@@H]2CC[C@@H](OCCO)[C@H](OC)C2)CC(=O)[C@H](C)/C=C(\C)[C@@H](O)[C@@H](OC)C(=O)[C@H](C)C[C@H](C)/C=C/C=C/C=C/1C [Everolimus (RAD001)],Average LMP1 Fold Increase,[10],1.65
same,Replicate 1-LMP1 Fold Increase,[11],2.00
same,Replicate 2-LMP1 Fold Increase,[11],1.31
CC1(COc2ccc3c(c2)ncn3-c2ccc3cccc(N4CCC(N)CC4)c3n2)COC1 [Crenolanib (CP-868596)],Average LMP1 Fold Increase,[10],4.04
same,Replicate 1-LMP1 Fold Increase,[11],2.56
same,Replicate 2-LMP1 Fold Increase,[11],5.53
O=c1cc(-c2cccc3c2Sc2ccccc2S3)oc(N2CCOCC2)c1 [KU-55933 (ATM Kinase Inhibitor)],Average LMP1 Fold Increase,[10],0.78
same,Replicate 1-LMP1 Fold Increase,[11],0.60
same,Replicate 2-LMP1 Fold Increase,[11],0.95
O=C(NCCN1CCOCC1)c1ccc(Cl)cc1 [Moclobemide (Ro 111163)],Average LMP1 Fold Increase,[10],0.55
same,Replicate 1-LMP1 Fold Increase,[11],0.28
same,Replicate 2-LMP1 Fold Increase,[11],0.81
C=CC(=O)Nc1cccc(Oc2nc(Nc3ccc(N4CCN(C)CC4)cc3OC)ncc2Cl)c1 [WZ4002],Average LMP1 Fold Increase,[7],0.90 fold
same,Replicate 1-LMP1 Fold Increase,[8],0.58 fold
same,Replicate 2-LMP1 Fold Increase,[9],1.23 fold
C=CCc1cccc(/C=N/NC(=O)CN2CCN(Cc3ccccc3)CC2)c1O [PAC-1],Average LMP1 Fold Increase,[10],0.78
same,Replicate 1-LMP1 Fold Increase,[11],0.78
same,Replicate 2-LMP1 Fold Increase,[11],0.78
O=C(Nc1cccnc1)N1CCC(Cc2cccc(Oc3ccc(C(F)(F)F)cn3)c2)CC1 [PF-3845],Average LMP1 Fold Increase,[10],0.32
same,Replicate 1-LMP1 Fold Increase,[11],0.16
same,Replicate 2-LMP1 Fold Increase,[11],0.48
CC(C)(C)n1nc(-c2ccc(Cl)cc2)c2c(N)ncnc21 [PP2],Average LMP1 Fold Increase,[10],1.01
same,Replicate 1-LMP1 Fold Increase,[11],0.73
same,Replicate 2-LMP1 Fold Increase,[11],1.28
"CO[C@H]1C[C@@H]2CC[C@@H](C)[C@@](O)(O2)C(=O)C(=O)N2CCCC[C@H]2C(=O)O[C@H]([C@H](C)C[C@@H]2CC[C@@H](OP(C)(C)=O)[C@H](OC)C2)CC(=O)[C@H](C)/C=C(\C)[C@@H](O)[C@@H](OC)C(=O)[C@H](C)C[C@H](C)/C=C/C=C/C=C/1C [Ridaforolimus (Deforolimus, MK-8669)]",Average LMP1 Fold Increase,[10],3.37
same,Replicate 1-LMP1 Fold Increase,[11],6.08
same,Replicate 2-LMP1 Fold Increase,[11],0.67
S3I-201,Average LMP1 Fold Increase,[10],0.65
same,Replicate 1-LMP1 Fold Increase,[11],0.63
same,Replicate 2-LMP1 Fold Increase,[11],0.67
CC(C)(Cc1ccc2ccccc2c1)NC[C@@H](O)COc1cccc(Cl)c1C#N [NPS-2143],Average LMP1 Fold Increase,[10],0.74
same,Replicate 1-LMP1 Fold Increase,[11],0.87
same,Replicate 2-LMP1 Fold Increase,[11],0.62
COc1ccc([C@]2(C#N)CC[C@@H](C(=O)O)CC2)cc1OC1CCCC1 [Cilomilast],fold induction at 2.5 µM,[4],1.06
same,fold induction at 2.5 µM,[5],0.95
same,fold induction at 2.5 µM,[6],1.18
CCCC(=O)Nc1cccc(NC(=O)c2ccccc2Br)c1 [ML161],Average LMP1 Fold Increase,[10],0.83
same,Replicate 1-LMP1 Fold Increase,[11],1.11
same,Replicate 2-LMP1 Fold Increase,[11],0.54
"C[C@@H]1CCN(C(=O)CC#N)C[C@@H]1N(C)c1ncnc2[nH]ccc12 [Tofacitinib (CP-690550,Tasocitinib)]",Average LMP1 Fold Increase,[7],0.46 fold
same,Replicate 1-LMP1 Fold Increase,[8],0.09 fold
same,Replicate 2-LMP1 Fold Increase,[9],0.82 fold
